Where two headings read alike, the source gives them in different places.
Columns and labels:
Format in all cases: cell-based, HIV-1
V106A-Y181C-F227L-RTV = assay: Phenotypic susceptibility assay, V106A-Y181C-F227L-RTV; settings: site directed mutant
Source text: (§1) The resistance test vectors containing a functional luciferase gene cassette were constructed and host cells were transfected with the resistance test vector DNA. The resistant test vectors contained patient-derived reverse transcriptase and protease sequences that were either susceptible or resistant to the antiretroviral agents, such as nucleoside reverse transcriptase inhibitors, non-nucleoside reverse transcriptase inhibitors and protease inhibitors. The resistance test vector viral particles produced by transfecting the resistance test vector DNA into host cells, either in the presence or absence of protease inhibitors, were used to infect target host cells grown either in the absence of NRTI or NNRTI or in the presence of increasing concentrations of the drug. The amount of luciferase activity produced in infected target host cells in the presence of drug was compared to the amount of luciferase produced in infected target host cells in the absence of drug. Drug resistance was measured as the amount of drug required to inhibit by 50% the luciferase activity detected in the absence of drug (inhibitory concentration 50%, IC50). The IC50 values were determined by plotting percent drug inhibition vs. log10 drug concentration.
(§2) Host cells were seeded in 10-cm-diameter dishes and were transfected several days after plating with resistance test vector plasmid DNA and the envelope expression vector. Transfections were performed using a calcium-phosphate precipitation procedure. The cell culture media containing the DNA precipitate was replaced with fresh medium, from one to 24 hours, after transfection. Cell culture media containing resistance test vector viral particles was harvested one to four days after transfection and was passed through a […] filter before being stored at −80° C. HIV capsid protein (p24) levels in the harvested cell culture media were determined by an EIA method as described by the manufacturer (SIAC; Frederick, Md.). […] The inhibitory effect of the drug was determined using the following equation: […]

[1] = tested on: Y188L-RTV (HIV reverse transcriptase Y188L); assay: Phenotypic susceptibility assay, Y188L-RTV; settings: site directed mutant
Source text: as §1, §2

V106A-V189L-RTV = assay: Phenotypic susceptibility assay, V106A-V189L-RTV; settings: site directed mutant
Source text: as §1, §2

[2] = tested on: F227L-RTV (HIV reverse transcriptase F227L); assay: Phenotypic susceptibility assay, F227L-RTV; settings: values <1 = increased susceptibility
Source text: as §1, §2

[3] = tested on: G190A-RTV (HIV reverse transcriptase G190A); assay: Phenotypic susceptibility assay, G190A-RTV
Source text: as §1
as §2, with “Md.). Before infection, target cells (293 and 293/T) were plated in cell culture media. Control infections were performed using cell culture media from mock transfections (no DNA) or transfections containing the resistance test vector plasmid DNA without the envelope expression plasmid. One to three or more days after infection the media was removed and cell lysis buffer (Promega) was added to each well.” for “Md.).”
where RLUluc [drug] is the relative light unit of luciferase activity in infected cells in the presence of drug and RLUluc is the Relative Light Unit of luciferase activity in infected cells in the absence of drug. […]

[4] = tested on: V106A-RTV (HIV reverse transcriptase V106A); assay: Phenotypic susceptibility assay, V106A-RTV; settings: site directed mutant
Source text: as §1, §2

[5] = tested on: RTV-1060 (patient sample 98-1060); assay: Phenotypic susceptibility assay, RTV-1060; settings: RTV-1060, patient-derived pool
Description: Transfections were performed using a calcium-phosphate precipitation procedure. […] Cell lysates were assayed for luciferase activity (FIG. 3).
The drug inhibition curves are shown in (FIG. 3).
This patient had been previously treated with d4T […] , indinavir (a PRI and efavirenz (an NNRTI). A second resistance test vector was constructed as described in Example 1 from a patient sample designated 98-1060. This patient had been previously treated with d4T […]. indinavir (a PRI) and efavirnez (an NNRTI). Isolation of viral RNA and RT/PCR was used to generate a patient derived segment that comprised viral sequences coding for all of PR and aa 1-313 of RT. The PDS was inserted into an indicator gene viral vector to generate resistance test vectors designated RTV-644 and RTV-1060. RTV-644 and RTV-1060 were then tested in a phenotypic assay to determine accurately and quantitatively the level of susceptibility to a panel of anti-retroviral drugs. […] An IC50 was determined for the resistance test vector pool for each drug tested. The pattern of susceptiblity to all of the drugs tested was examined and compared to known patterns of susceptibility.

[6] = tested on: K103N-RTV (HIV reverse transcriptase K103N); assay: Phenotypic susceptibility assay, K103N-RTV; settings: site directed mutant
Source text: as §1
(§3) Host cells were seeded in 10-cm-diameter dishes and were transfected several days after plating with resistance test vector plasmid DNA and the envelope expression vector. Transfections were performed using a calcium-phosphate precipitation procedure. […] HIV capsid protein (p24) levels in the harvested cell culture media were determined by an EIA method as described by the manufacturer (SIAC; Frederick, Md.). […] The inhibitory effect of the drug was determined using the following equation: […]
(§4) The mutations Y188L, L100I and K103N were introduced alone and in combinationn into resistance test vectors using the mega-primer method for site-directed mutagenesis (Sakar and Sommar, Ibid.). […] We determined the pattern of phenotypic susceptibility to the NNRTIs, delavirdine, nevlrapine and efavirenz, in all 6 vectors.

[7] = tested on: L100I-RTV (HIV reverse transcriptase L100I); assay: Phenotypic susceptibility assay, L100I-RTV; settings: site directed mutant
Source text: as §1, §3, §4

Y181C-F227L-RTV = assay: Phenotypic susceptibility assay, Y181C-F227L-RTV; settings: values <1 = increased susceptibility
Source text: as §1, §2

## Cc1ccnc2c1NC(=O)c1cccnc1N2C1CC1 [nevirapine]
V106A-Y181C-F227L-RTV
  fold loss of susceptibility compared to wild type control RTV: greater than 800 fold
[1]
  fold loss of susceptibility compared to wild type control RTV: greater than 800 fold
V106A-V189L-RTV
  fold loss of susceptibility compared to wild type control RTV: 50 fold
[2]
  fold change in susceptibility compared to wild type control RTV: 3 fold
[3]
  change in susceptibility compared to wild type reference RTV: markedly less susceptible to nevirapine
[4]
  fold loss of susceptibility compared to wild type control RTV: 60 fold
[5]
  fold decrease in susceptibility (IC50): greater than 800 fold
[6]
  fold loss of susceptibility compared to wild type control RTV: 55 fold
[7]
  fold loss of susceptibility compared to wild type control RTV: 3 fold
Y181C-F227L-RTV
  fold change in susceptibility compared to wild type control RTV: 285 fold

## CC(C)Nc1cccnc1N1CCN(C(=O)c2cc3cc(NS(C)(=O)=O)ccc3[nH]2)CC1 [delavirdine]
V106A-Y181C-F227L-RTV
  fold loss of susceptibility compared to wild type control RTV: 50 fold
[1]
  fold loss of susceptibility compared to wild type control RTV: 9 fold
V106A-V189L-RTV
  fold loss of susceptibility compared to wild type control RTV: 3 fold
[2]
  fold change in susceptibility compared to wild type control RTV: 0.03 fold
[3]
  change in susceptibility compared to wild type reference RTV: slightly more susceptible to delavirdine
[3]; listed as delviridine
  change in susceptibility compared to wild type reference RTV: increased susceptibility
[4]
  fold loss of susceptibility compared to wild type control RTV: 5 fold
[5]
  fold decrease in susceptibility (IC50): 1.5 fold
[6]
  fold loss of susceptibility compared to wild type control RTV: 50 fold
[7]
  fold loss of susceptibility compared to wild type control RTV: 30 fold
Y181C-F227L-RTV
  fold change in susceptibility compared to wild type control RTV: 0.89 fold

## O=C1Nc2ccc(Cl)cc2[C@@](C#CC2CC2)(C(F)(F)F)O1 [efavirenz]
V106A-Y181C-F227L-RTV
  fold loss of susceptibility compared to wild type control RTV: 12 fold
[1]
  fold loss of susceptibility compared to wild type control RTV: 110 fold
V106A-V189L-RTV
  fold loss of susceptibility compared to wild type control RTV: 1 fold
[2]
  fold change in susceptibility compared to wild type control RTV: 0.48 fold
[3]; site directed mutant
  fold change in susceptibility compared to wild type control RTV: 8 fold
[4]
  fold loss of susceptibility compared to wild type control RTV: 1.7 fold
[5]
  fold decrease in susceptibility (IC50): 900 fold
[6]
  fold loss of susceptibility compared to wild type control RTV: 30 fold
[7]
  fold loss of susceptibility compared to wild type control RTV: 10 fold
Y181C-F227L-RTV
  fold change in susceptibility compared to wild type control RTV: 0.99 fold
